The Dmax is the largest share of the target that was removed. Higher therefore signals a fuller loss of target. By DC50 is commonly meant the concentration at which degradation of the target reaches its halfway point.

The text below walks through data of US12624044B2, “SMARCA degraders and uses thereof” (Kymera Therapeutics, Inc., priority 2019, dated 2026).

Bounds are passed on as bounds.

The assay addresses SMARCA2 (Homo sapiens, UniProt P51531). Description: MSD SMARCA2 degradation in A549 cell line. Format: cell-based. Particulars: 24 h; for Dmax: A549, A549 cells; for DC50: A549 cells, read-out: SMARCA2 MSD A549 degradation 24 h: Average external-Abs DC50. How it is done: Cells were seeded into 96-well plates (A549 cells: 2×10^4 cells/well/100 ul media) abd incubated overnight. The next day, 200 nl compound were added into the intermediate plate with Echo (Labcyte 550) from source plate containing a 3-fold serial dilution from top concentration of 1 mM. The culture medium was changed with 80 ul of fresh medium and 80 ul of 2× compound solution was added into the well to make a final concentration of 1000 nM, 333.3 nM, 111.1 nM, 37.04 nM, 12.35 nM, 4.115 nM, 1.372 nM, 0.457 nM, 0.152 nM and 0 nM (DMSO). The wells were mixed and then incubated for 24 hours. The media was aspirated from the cultures and 60 ul pre-chilled PIPA lysis buffer (Boston BioProducts BP-115D) with protease/phosphatase inhibitor (Roche 05892791001/Roche 04906837001) was added into the well to lyze the cells for 20 minutes at 4° C. The MSD plate (L15XA) was coated with 40 ul cell lysate and incubated at 4° C. overnight. The next day, the plate was washed three times with TBST (CST #9997S), 150 ul/well. The MSD plates was blocked with 150 ul blocking buffer per well and shaked for 1 hr at RT, 600 rpm. The blocking buffer was 3% Blocker A (MSD, R93BA-4) in TBST. The MSD plate was washed three times with 150 ul/well of TBST and 25 ul/well of detection antibody (Rabbit anti-SMARCA2/BRM antibody, 100 μg/ml, ab223735) was added at final concentration of 1 ug/ml diluted in 1% Blocking buffer and shaken for 1 hour at RT, 600 rpm. The MSD plate was washed three times with 150 ul/well of TBST and 25 ul/well of SULFO-TAG anti-rabbit antibody (MSD, R32AB-1) was added at final concentration of 1 ug/ml diluted in 1% Blocking buffer and shaken for 1 hour at RT, 600 rpm. The MSD plate was washed three times with 150 ul/well of TBST and 150 ul/well of 2×MSD reading buffer diluted from 4× (MSD, R92TC-2) with water was added. Lastly, the MSD instrument was read.
The letter codes for the percentage of SMARCA2 degradation after 24 hours (Dmax %) include: A (>90% degradation), B (>70-90% degradation), C (50-70% degradation), and D (<50% degradation).

SMARCA2, sequence (P51531 whole entry): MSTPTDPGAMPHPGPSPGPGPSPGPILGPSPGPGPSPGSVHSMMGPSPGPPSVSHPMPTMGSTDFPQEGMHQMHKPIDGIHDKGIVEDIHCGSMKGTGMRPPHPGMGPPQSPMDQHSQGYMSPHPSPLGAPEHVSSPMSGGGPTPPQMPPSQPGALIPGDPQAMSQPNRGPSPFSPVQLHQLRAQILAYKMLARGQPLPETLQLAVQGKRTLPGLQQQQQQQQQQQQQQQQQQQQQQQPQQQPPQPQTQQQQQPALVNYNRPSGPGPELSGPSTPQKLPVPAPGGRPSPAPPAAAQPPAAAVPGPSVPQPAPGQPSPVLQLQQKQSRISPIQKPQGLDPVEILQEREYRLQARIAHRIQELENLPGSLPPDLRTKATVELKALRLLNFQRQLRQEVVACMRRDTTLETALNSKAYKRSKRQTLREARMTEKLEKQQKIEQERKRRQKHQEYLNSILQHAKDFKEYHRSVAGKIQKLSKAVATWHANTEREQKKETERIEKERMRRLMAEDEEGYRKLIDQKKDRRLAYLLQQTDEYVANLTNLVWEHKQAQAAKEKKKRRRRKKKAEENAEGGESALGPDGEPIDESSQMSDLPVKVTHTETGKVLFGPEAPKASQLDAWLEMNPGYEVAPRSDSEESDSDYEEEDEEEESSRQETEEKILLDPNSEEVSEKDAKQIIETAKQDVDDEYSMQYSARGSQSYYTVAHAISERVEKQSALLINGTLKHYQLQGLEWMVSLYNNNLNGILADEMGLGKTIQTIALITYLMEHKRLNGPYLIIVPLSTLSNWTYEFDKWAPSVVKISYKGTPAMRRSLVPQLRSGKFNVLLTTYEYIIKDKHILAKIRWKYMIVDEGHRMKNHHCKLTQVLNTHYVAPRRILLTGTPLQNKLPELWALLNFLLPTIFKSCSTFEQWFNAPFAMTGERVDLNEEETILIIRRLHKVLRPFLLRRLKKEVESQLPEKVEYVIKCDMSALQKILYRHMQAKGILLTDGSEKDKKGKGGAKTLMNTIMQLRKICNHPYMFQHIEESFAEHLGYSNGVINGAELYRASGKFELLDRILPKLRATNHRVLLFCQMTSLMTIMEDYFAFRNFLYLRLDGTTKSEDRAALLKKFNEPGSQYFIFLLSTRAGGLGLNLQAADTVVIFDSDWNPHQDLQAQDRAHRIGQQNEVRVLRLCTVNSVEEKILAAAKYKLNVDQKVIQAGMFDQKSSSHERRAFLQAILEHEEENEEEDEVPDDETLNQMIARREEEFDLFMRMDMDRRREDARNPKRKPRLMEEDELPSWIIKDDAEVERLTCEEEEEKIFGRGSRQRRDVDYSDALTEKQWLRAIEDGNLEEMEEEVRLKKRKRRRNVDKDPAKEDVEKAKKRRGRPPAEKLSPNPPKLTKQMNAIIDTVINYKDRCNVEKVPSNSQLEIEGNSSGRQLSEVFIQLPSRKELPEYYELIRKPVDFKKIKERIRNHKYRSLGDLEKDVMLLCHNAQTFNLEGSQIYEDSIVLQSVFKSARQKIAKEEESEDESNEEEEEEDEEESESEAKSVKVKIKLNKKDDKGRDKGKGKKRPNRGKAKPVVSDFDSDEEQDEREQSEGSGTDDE

Regarding `Cc1ncsc1-c1ccc(CNC(=O)[C@@H]2C[C@@H](O)CN2C(=O)[C@@H](NC(=O)C[C@H]2C[C@H](N3CCC(c4cnc(N5C6CCC5CN(c5cc(-c7ccccc7O)nnc5N)C6)nc4)CC3)C2)C(C)(C)C)cc1` [I-391], the Dmax was greater than 90% and the DC50 was in the range of 100 to 500 nM.
For the compound `Cc1ncsc1-c1ccc(CNC(=O)[C@@H]2C[C@@H](O)CN2C(=O)[C@@H](NC(=O)[C@H]2CC[C@H](N(C)Cc3cnc(N4C5CCC4CN(c4cc(-c6ccccc6O)nnc4N)C5)nc3)CC2)C(C)(C)C)cc1` [I-372], the Dmax fell in the range of 50 to 70% and the DC50 lay in the range of 501 to 1000 nM.
Taken in the same sequence, the figures for `Nc1nnc(-c2ccccc2O)cc1N1CC2CCC(C1)N2c1ncc(C2CCN(CCCCCCCCOc3ccc(Oc4ccc(N(Cc5ccccc5)C(=O)CCl)cc4)cc3)CC2)cn1` [I-532] were 50 to 70% and greater than 1000 nM.
Taken in the same sequence, the figures for `CN(CCCOCCCc1cccc2c1n(C)c(=O)n2C1CCC(=O)NC1=O)Cc1cccc(C#Cc2cc(NC(=O)Nc3cc(F)ncc3CO)ccn2)c1` (stereo not shown) [I-312] were less than 50% and greater than 1000 nM.
The matching figures for `Cc1ncsc1-c1ccc(CNC(=O)[C@@H]2C[C@@H](O)CN2C(=O)[C@@H](NC(=O)CCCCCNCc2cccc(C#Cc3cc(NC(=O)Nc4cc(F)ncc4CO)ccn3)c2)C(C)(C)C)cc1` [I-489]: less than 50% and greater than 1000 nM.
Take `Cc1ncsc1-c1ccc(CNC(=O)[C@@H]2C[C@@H](O)CN2C(=O)[C@@H](NC(=O)[C@H]2CC[C@@H](CN3CCC(c4cnc(N5C6CCC5CN(c5cc(-c7ccccc7O)nnc5N)C6)nc4)CC3)CC2)C(C)(C)C)cc1` [I-373]: the Dmax was greater than 90% and the DC50 was in the range of 100 to 500 nM.
The matching figures for `Nc1nnc(-c2ccccc2O)cc1N1CC2CCC(C1)N2c1ncc(C2CCN(CCCCCCOc3ccc(Oc4ccc(N(Cc5ccccc5)C(=O)CCl)cc4)cc3)CC2)cn1` [I-531]: less than 50% and greater than 1000 nM.
As for `Cc1ncsc1-c1ccc(CNC(=O)[C@@H]2C[C@@H](O)CN2C(=O)[C@@H](NC(=O)[C@H]2CC[C@@H](N(C)Cc3cnc(N4C5CCC4CN(c4cc(-c6ccccc6O)nnc4N)C5)nc3)CC2)C(C)(C)C)cc1` [I-371], the Dmax is greater than 90% and the DC50 lay within 100 to 500 nM.
Taken in the same sequence, the figures for `CN(Cc1cccc(C#Cc2cc(NC(=O)Nc3cc(F)ncc3CO)ccn2)c1)C1CCN(Cc2cccc3c2n(C)c(=O)n3C2CCC(=O)NC2=O)CC1` (stereo not shown) [I-318] were less than 50% and greater than 1000 nM.
The matching figures for `Cc1ncsc1-c1ccc(CNC(=O)[C@@H]2C[C@@H](O)CN2C(=O)[C@@H](NC(=O)CCCN2CCC(c3cccc(C#Cc4cc(NC(=O)Nc5cc(F)ncc5CO)ccn4)c3)CC2)C(C)(C)C)cc1` [I-499, (2S,4R)-1-[(2S)-2-[4-[4-[3-[2-[4-[[2-fluoro-5-(hydroxymethyl)-4-pyridyl]carbamoylamino]-2-pyridyl]ethynyl]phenyl]-1-piperidyl]butanoylamino]-3,3-dimethyl-butanoyl]-4-hydroxy-N-[[4-(4-methylthiazol-5-yl)phenyl]methyl]pyrrolidine-2-carboxamide]: less than 50% and greater than 1000 nM.
Taken in the same sequence, the figures for `Cc1ncsc1-c1ccc(CNC(=O)[C@@H]2C[C@@H](O)CN2C(=O)[C@@H](NC(=O)CCN2CCC[C@@H](Cn3cc(-c4cc(-c5ccccc5O)nnc4N)cn3)C2)C(C)(C)C)cc1` [I-470] were less than 50% and greater than 1000 nM.
Regarding `Cc1ncsc1-c1ccc(CNC(=O)[C@@H]2C[C@@H](O)CN2C(=O)[C@@H](NC(=O)[C@H]2CC[C@@H](Cc3ccc(-c4cnc(N5C6CCC5CN(c5cc(-c7ccccc7O)nnc5N)C6)nc4)cc3)CC2)C(C)(C)C)cc1` [I-413], the Dmax was in the range of 70 to 90% and the DC50 lay within 100 to 500 nM.
For `Cc1ncsc1-c1ccc(CNC(=O)[C@@H]2C[C@@H](O)CN2C(=O)[C@@H](NC(=O)[C@H]2C[C@@H](N(C)Cc3cnc(N4C5CCC4CN(c4cc(-c6ccccc6O)nnc4N)C5)nc3)C2)C(C)(C)C)cc1` [I-370], the Dmax was 70 to 90% and the half-maximal degradation concentration (DC50) is 100 to 500 nM.
The matching figures for `Cc1ncsc1-c1ccc(CNC(=O)[C@@H]2C[C@@H](O)CN2C(=O)C(NC(=O)C2(F)CC2)C2CCC(N(C)CCCCCCCc3cnc(N4C5CCC4CN(c4cc(-c6ccccc6O)nnc4N)C5)nc3)CC2)cc1` (stereo partly drawn) [I-520, (2S,4R)-1-[2-[4-[7-[2-[3-[3-amino-6-(2-hydroxyphenyl)pyridazin-4-yl]-3,8-diazabicyclo[3.2.1]octan-8-yl]pyrimidin-5-yl]heptyl-methyl-amino]cyclohexyl]-2-[(1-fluorocyclopropanecarbonyl)amino]acetyl]-4-hydroxy-N-[[4-(4-methylthiazol-5-yl)phenyl]methyl]pyrrolidine-2-carboxamide]: less than 50% and greater than 1000 nM.
Taken in the same sequence, the figures for `Cc1ncsc1-c1ccc(CNC(=O)[C@@H]2C[C@@H](O)CN2C(=O)[C@@H](NC(=O)CCCCCCCNCc2ccc(C#Cc3cc(NC(=O)Nc4cc(F)ncc4CO)ccn3)cc2)C(C)(C)C)cc1` [I-494] were less than 50% and greater than 1000 nM.
The matching figures for `Cc1ncsc1-c1ccc(CNC(=O)[C@@H]2C[C@@H](O)CN2C(=O)[C@@H](NC(=O)[C@H]2CC[C@@H](N3CCC(N4CCC(n5cc(-c6cc(-c7ccccc7O)nnc6N)cn5)CC4)CC3)CC2)C(C)(C)C)cc1` [I-435]: less than 50% and greater than 1000 nM.
As for `Cc1ncsc1-c1ccc(CNC(=O)[C@@H]2C[C@@H](O)CN2C(=O)[C@@H](NC(=O)C2CC3CCC2C[C@H]3c2cnc(N3C4CCC3CN(c3cc(-c5ccccc5O)nnc3N)C4)nc2)C(C)(C)C)c(C(F)(F)F)c1` (stereo partly shown) [I-442], the Dmax is 50 to 70% and the DC50 was in the range of 501 to 1000 nM.
For the compound `Cc1ncsc1-c1ccc(CNC(=O)[C@@H]2C[C@@H](O)CN2C(=O)[C@@H](NC(=O)CN2CCC(c3cccc(C#Cc4cc(NC(=O)Nc5cc(F)ncc5CO)ccn4)c3)CC2)C(C)(C)C)cc1` [I-498], the Dmax was less than 50% and the half-maximal degradation concentration (DC50) is greater than 1000 nM.
Taken in the same sequence, the figures for `Cc1ncsc1-c1ccc(CNC(=O)[C@@H]2C[C@@H](O)CN2C(=O)[C@@H](NC(=O)C2CC3(C2)CC(N2CCC(c4cnc(N5C6CCC5CN(c5cc(-c7ccccc7O)nnc5N)C6)nc4)CC2)C3)C(C)(C)C)cc1` (stereo partly shown) [I-414] were greater than 90% and 100 to 500 nM.
The matching figures for `Cn1c(=O)n(C2CCC(=O)NC2=O)c2ccc(CCCOCCCCN3CCN(Cc4ccc(C#Cc5cc(NC(=O)Nc6cc(F)ncc6CO)ccn5)cc4)CC3)cc21` (stereo not shown) [I-306]: less than 50% and greater than 1000 nM.
As to `O=C1CCC(n2c(=O)oc3c(CCCOC4CCN(Cc5cccc(C#Cc6cc(NC(=O)Nc7cc(F)ncc7CO)ccn6)c5)CC4)cccc32)C(=O)N1` (stereo not shown) [I-317], the Dmax is less than 50% and the half-maximal degradation concentration (DC50) is greater than 1000 nM.
Take `Cc1ncsc1-c1ccc(CNC(=O)[C@@H]2C[C@@H](O)CN2C(=O)[C@@H](NC(=O)CCCN(C)Cc2ccc(N3CCN(c4cc(-c5ccccc5O)nnc4N)CC3)cc2)C(C)(C)C)cc1` [I-464]: the Dmax is less than 50% and the DC50 is greater than 1000 nM.
The matching figures for `Cc1ncsc1-c1ccc(CNC(=O)[C@@H]2C[C@@H](O)CN2C(=O)[C@@H](NC(=O)[C@H]2CC[C@H](Cc3cnc(N4C5CCC4CN(c4cc(-c6ccccc6O)nnc4N)C5)nc3)CC2)C(C)(C)C)c(C(F)(F)F)c1` [I-422]: greater than 90% and 100 to 500 nM.
As for `Cc1ncsc1-c1ccc(CNC(=O)[C@@H]2C[C@@H](O)CN2C(=O)[C@@H](NC(=O)CCN(C)Cc2ccc(N3CCN(c4cc(-c5ccccc5O)nnc4N)CC3)cc2)C(C)(C)C)cc1` [I-463], the Dmax is less than 50% and the 50% degradation concentration (DC50) is greater than 1000 nM.
Taken in the same sequence, the figures for `Cc1ncsc1-c1ccc(CNC(=O)[C@@H]2C[C@@H](O)CN2C(=O)[C@@H](NC(=O)CN2CCC(c3ccc(C#Cc4cc(NC(=O)Nc5cc(F)ncc5CO)ccn4)cc3)CC2)C(C)(C)C)cc1` [I-500, (2S,4R)-1-((S)-2-(2-(4-(4-((4-(3-(2-fluoro-5-(hydroxymethyl)pyridin-4-yl)ureido)pyridin-2-yl)ethynyl)phenyl)piperidin-1-yl)acetamido)-3,3-dimethylbutanoyl)-4-hydroxy-N-(4-(4-methylthiazol-5-yl)benzyl)pyrrolidine-2-carboxamide] were less than 50% and greater than 1000 nM.
The matching figures for `Cc1ncsc1-c1ccc(CNC(=O)[C@@H]2C[C@@H](O)CN2C(=O)[C@@H](NC(=O)[C@H]2CC[C@@H](Cc3cnc(N4C5CCC4CN(c4cc(-c6ccccc6O)nnc4N)C5)nc3)CC2)C(C)(C)C)c(C(F)(F)F)c1` [I-421]: 70 to 90% and 100 to 500 nM.
